Read-outs that look alike come from different tables or passages of the source.
What was measured:
MERS-CoV 3CLpro = MERS-CoV 3CLpro (Middle East respiratory syndrome-related coronavirus, UniProt K9N7C7); assay: biochemical
SARS-CoV 3CLpro = SARS-CoV 3CLpro (Severe acute respiratory syndrome coronavirus, UniProt P0C6X7); assay: biochemical
HCoV-229E 3CLpro = HCoV-229E 3CLpro (Human coronavirus 229E, UniProt P0C6X1); assay: HCoV-229E 3CLpro inhibition assay (FRET); assay type: biochemical
SARS-CoV-2 3CLpro = SARS-CoV-2 3CLpro (Severe acute respiratory syndrome coronavirus 2, UniProt P0DTD1); assay: biochemical

Chain of MERS-CoV 3CLpro (K9N7C7 3248-3553): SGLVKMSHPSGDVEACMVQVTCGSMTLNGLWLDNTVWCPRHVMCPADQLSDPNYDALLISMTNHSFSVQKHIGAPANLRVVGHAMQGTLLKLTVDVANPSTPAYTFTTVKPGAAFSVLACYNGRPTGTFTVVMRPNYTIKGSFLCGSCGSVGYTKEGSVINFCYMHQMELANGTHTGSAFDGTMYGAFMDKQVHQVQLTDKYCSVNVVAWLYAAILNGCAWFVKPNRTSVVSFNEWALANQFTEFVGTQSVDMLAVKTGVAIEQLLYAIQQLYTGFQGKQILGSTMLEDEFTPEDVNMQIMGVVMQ
Chain of HCoV-229E 3CLpro (P0C6X1 2966-3267): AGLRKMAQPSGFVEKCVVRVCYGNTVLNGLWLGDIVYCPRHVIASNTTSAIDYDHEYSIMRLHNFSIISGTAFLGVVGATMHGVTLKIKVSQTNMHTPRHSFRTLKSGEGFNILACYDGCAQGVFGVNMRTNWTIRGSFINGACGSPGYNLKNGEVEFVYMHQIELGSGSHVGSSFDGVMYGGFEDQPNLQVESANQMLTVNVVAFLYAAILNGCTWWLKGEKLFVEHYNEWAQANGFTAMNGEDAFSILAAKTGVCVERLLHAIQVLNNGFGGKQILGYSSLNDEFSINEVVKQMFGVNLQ

SMILES	IC50 (MERS-CoV 3CLpro) [nM]	IC50 (SARS-CoV 3CLpro) [nM]	IC50 (HCoV-229E 3CLpro) [nM]	IC50 (SARS-CoV-2 3CLpro) [nM]	IC50 (SARS-CoV-2 3CLpro; read-out: IC50 in SARS-CoV-2 3CLpro assay) [nM]
CC[C@@H](C)[C@H](NC(=O)C1CC1(F)F)C(=O)N1C[C@H]2[C@@H]([C@H]1C(=O)NN(C[C@@H]1CCNC1=O)C(=O)[C@H](F)Cl)C2(C)C (mixture of isomers) [Example 113, Rac-2,2-difluoro-N-[(1S,2R)-2-methyl-1-[(1R,2S,5S)-6,6-dimethyl-2-[[[(2R)-2-chloro-2-fluoro-acetyl]-[[(3S)-2-oxopyrrolidin-3-yl]methyl]amino]carbamoyl]-3-azabicyclo[3.1.0]hexane-3-carbonyl]butyl]cyclopropanecarboxamide]	79	15	23	10	
CC[C@@H](C)[C@H](NC(=O)C1CC1(F)F)C(=O)N1C[C@H]2[C@@H]([C@H]1C(=O)NN(C[C@@H]1CCNC1=O)C(=O)[C@@H](F)Cl)C2(C)C (mixture of isomers) [Example 124, Rac-2,2-difluoro-N-[(1S,2R)-2-methyl-1-[(1R,2S,5S)-6,6-dimethyl-2-[[[(2S)-2-chloro-2-fluoro-acetyl]-[[(3S)-2-oxopyrrolidin-3-yl]methyl]amino]carbamoyl]-3-azabicyclo[3.1.0]hexane-3-carbonyl]butyl]cyclopropanecarboxamide]	115	45	41	26	
CCC(CC)[C@H](NC(=O)C(C)F)C(=O)N1CC(C)(C)C[C@H]1C(=O)NN(C[C@@H]1CCNC1=O)C(=O)[C@H](F)Cl (mixture of isomers) [Example 137, Rac-2-fluoro-N-[(1S)-2-ethyl-1-[(2S)-4,4-dimethyl-2-[[[(2R)-2-chloro-2-fluoro-acetyl]-[[(3S)-2-oxopyrrolidin-3-yl]methyl]amino]carbamoyl]pyrrolidine-1-carbonyl]butyl]propanamide]	192	27	46	18	
CCC(C)(C)[C@H](NC(=O)C(C)F)C(=O)N1C[C@H]2[C@@H]([C@H]1C(=O)NN(C[C@@H]1CCNC1=O)C(=O)[C@@H](F)Cl)C2(C)C (mixture of isomers) [Example 146, Rac-2-fluoro-N-[(1S)-2,2-dimethyl-1-[(1R,2S,5S)-6,6-dimethyl-2-[[[(2S)-2-chloro-2-fluoro-acetyl]-[[(3S)-2-oxopyrrolidin-3-yl]methyl]amino]carbamoyl]-3-azabicyclo[3.1.0]hexane-3-carbonyl]butyl]propanamide]	151	23	69	16	
CC(C)(C)[C@H](NC(=O)C(F)(F)F)C(=O)N1C[C@H]2[C@@H]([C@H]1C(=O)NN(C[C@H]1CCCNC1=O)C(=O)[C@H](F)Cl)C2(C)C (single isomer, unassigned) [Example 163a]	226	18	52	9	
CC(C)(C)[C@H](NC(=O)C(F)(F)F)C(=O)N1C[C@H]2[C@@H]([C@H]1C(=O)NN(C[C@@H]1CCCNC1=O)C(=O)[C@H](F)Cl)C2(C)C (single isomer, unassigned) [Example 163b]	469	33	104	17	
CC[C@H](C)[C@H](NC(=O)C(F)(F)F)C(=O)N1C[C@H]2[C@@H]([C@H]1C(=O)NN(C[C@@H]1CCCNC1=O)C(=O)[C@H](F)Cl)C2(C)C (single isomer, unassigned) [Example 165a]	185	12	38	11	
CC[C@H](C)[C@H](NC(=O)C(F)(F)F)C(=O)N1C[C@H]2[C@@H]([C@H]1C(=O)NN(C[C@H]1CCCNC1=O)C(=O)[C@H](F)Cl)C2(C)C (single isomer, unassigned) [Example 165b]	291	36	57	20	
CCC(C)[C@H](NC(=O)C1(F)CCC1)C(=O)N1C[C@@H]2CCC[C@@H]2[C@H]1C(=O)NN(C[C@@H]1CCNC1=O)C(=O)[C@H](F)Cl (stereo in doubt) [Example 125, N-[(1S,2S)-1-[(3S,3aS,6aR)-3-[[[(2R)-2-chloro-2-fluoro-acetyl]-[[(3S)-2-oxopyrrolidin-3-yl]methyl]amino]carbamoyl]-3,3a,4,5,6,6a-hexahydro-1H-cyclopenta[c]pyrrole-2-carbonyl]-2-methyl-butyl]-1-fluoro-cyclobutanecarboxamide]	114	12	42	10	
CC(C)(C)[C@H](NC(=O)C(F)(F)F)C(=O)N1C[C@H]2[C@@H]([C@H]1C(=O)NN(C[C@@H]1CCNC1=O)C(=O)[C@H](F)Cl)C2(C)C [Example 1, N-[(1S)-1-[(1R,2S,5S)-2-[[[(2R)-2-chloro-2-fluoro-acetyl]-[[(3S)-2-oxopyrrolidin-3-yl]methyl]amino]carbamoyl]-6,6-dimethyl-3-azabicyclo[3.1.0]hexane-3-carbonyl]-2,2-dimethyl-propyl]-2,2,2-trifluoro-acetamide]	115	15	35	10	
CC1(C)[C@@H]2[C@@H](C(=O)NN(C[C@@H]3CCNC3=O)C(=O)[C@H](F)Cl)N(C(=O)[C@@H](NC(=O)C(F)(F)F)C3CC3)C[C@@H]21 [Example 2, N-[(1S)-2-[(1R,2S,5S)-2-[[[(2R)-2-chloro-2-fluoro-acetyl]-[[(3S)-2-oxopyrrolidin-3-yl]methyl]amino]carbamoyl]-6,6-dimethyl-3-azabicyclo[3.1.0]hexan-3-yl]-1-cyclopropyl-2-oxo-ethyl]-2,2,2-trifluoro-acetamide]	177	30	41	19	
CC(C)C[C@H](NC(=O)C(F)(F)F)C(=O)N1C[C@H]2[C@@H]([C@H]1C(=O)NN(C[C@@H]1CCNC1=O)C(=O)[C@H](F)Cl)C2(C)C [Example 3, N-[(1S)-1-[(1R,2S,5S)-2-[[[(2R)-2-chloro-2-fluoro-acetyl]-[[(3S)-2-oxopyrrolidin-3-yl]methyl]amino]carbamoyl]-6,6-dimethyl-3-azabicyclo[3.1.0]hexane-3-carbonyl]-3-methyl-butyl]-2,2,2-trifluoro-acetamide]	174	20	38	14	
CC(C)(C)[C@H](NC(=O)C(F)(F)F)C(=O)N1C[C@@H]2CCC[C@@H]2[C@H]1C(=O)NN(C[C@@H]1CCNC1=O)C(=O)[C@H](F)Cl [Example 4, N-[(1S)-1-[(3S,3aS,6aR)-3-[[[(2R)-2-chloro-2-fluoro-acetyl]-[[(3S)-2-oxopyrrolidin-3-yl]methyl]amino]carbamoyl]-3,3a,4,5,6,6a-hexahydro-1H-cyclopenta[c]pyrrole-2-carbonyl]-2,2-dimethyl-propyl]-2,2,2-trifluoro-acetamide]	70	16	39		6
CC(C)(C)[C@H](NC(=O)C(F)(F)F)C(=O)N1C[C@@H]2CC[C@@H]2[C@H]1C(=O)NN(C[C@@H]1CCNC1=O)C(=O)[C@H](F)Cl [Example 5, N-[(1S)-1-[(1S,2S,5R)-2-[[[(2R)-2-chloro-2-fluoro-acetyl]-[[(3S)-2-oxopyrrolidin-3-yl]methyl]amino]carbamoyl]-3-azabicyclo[3.2.0]heptane-3-carbonyl]-2,2-dimethyl-propyl]-2,2,2-trifluoro-acetamide]	303	19	104	10	
C[C@@H]1C[C@@H](C(=O)NN(C[C@@H]2CCNC2=O)C(=O)[C@H](F)Cl)N(C(=O)[C@@H](NC(=O)C(F)(F)F)C(C)(C)C)C1 [Example 7, N-[(1S)-1-[(2S,4R)-2-[[[(2R)-2-chloro-2-fluoro-acetyl]-[[(3S)-2-oxopyrrolidin-3-yl]methyl]amino]carbamoyl]-4-methyl-pyrrolidine-1-carbonyl]-2,2-dimethyl-propyl]-2,2,2-trifluoro-acetamide]	379	17	193	8	
CC1(C)C[C@@H](C(=O)NN(C[C@@H]2CCNC2=O)C(=O)[C@H](F)Cl)N(C(=O)[C@@H](NC(=O)C(F)(F)F)C(C)(C)C)C1 [Example 8, N-[(1S)-1-[(2S)-2-[[[(2R)-2-chloro-2-fluoro-acetyl]-[[(3S)-2-oxopyrrolidin-3-yl]methyl]amino]carbamoyl]-4,4-dimethyl-pyrrolidine-1-carbonyl]-2,2-dimethyl-propyl]-2,2,2-trifluoro-acetamide]	136	25	42	10	
CC(C)(C)[C@H](NC(=O)C(F)(F)F)C(=O)N1C[C@@H]2C[C@@H]2[C@H]1C(=O)NN(C[C@@H]1CCNC1=O)C(=O)[C@H](F)Cl [Example 9, N-[(1S)-1-[(1S,2S,5R)-2-[[[(2R)-2-chloro-2-fluoro-acetyl]-[[(3S)-2-oxopyrrolidin-3-yl]methyl]amino]carbamoyl]-3-azabicyclo[3.1.0]hexane-3-carbonyl]-2,2-dimethyl-propyl]-2,2,2-trifluoro-acetamide]	2780	38	939	12	
CC(C)(C)[C@H](NC(=O)C(F)(F)F)C(=O)N1C[C@H]2[C@@H]([C@H]1C(=O)NN(Cc1cc[nH]n1)C(=O)[C@H](F)Cl)C2(C)C [Example 10, N-[(1S)-1-[(1R,2S,5S)-2-[[[(2R)-2-chloro-2-fluoro-acetyl]-(1H-pyrazol-3-ylmethyl)amino]carbamoyl]-6,6-dimethyl-3-azabicyclo[3.1.0]hexane-3-carbonyl]-2,2-dimethyl-propyl]-2,2,2-trifluoro-acetamide]	3040	373	1240	21	

Source: US20250059171A1 (Hoffmann-La Roche Inc., priority 2021, published 2025)
